Experiments:
ECHCG = test: Post-emergence herbicidal action against ECHCG; type: in vivo, Echinochloa crus-galli; details: application rate 80 g/ha, rated visually after about 3 weeks
Outline: (§1)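 One-leaf-stage plants (2–3 weeks after sowing in sandy loam) received a foliar spray of WP- or EC-formulated compound in water with 0.5% additive at 600 l/ha. Plants stayed under optimum greenhouse conditions for about 3 weeks before visual scoring against controls.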

ABUTH = test: Post-emergence herbicidal action against ABUTH; type: in vivo, Abutilon theophrasti; details: application rate 80 g/ha, rated visually about 3 weeks after treatment
Outline: as §1

STEME = test: Post-emergence herbicidal action against STEME; type: in vivo, Stellaria media; details: application rate 80 g/ha, rated visually about 3 weeks after treatment
Outline: as §1

AVEFA = test: Post-emergence herbicidal action against AVEFA; type: in vivo, Avena fatua; details: application rate 80 g/ha, rated visually after about 3 weeks
Outline: as §1

HORMU = test: Post-emergence herbicidal action against HORMU; type: in vivo, Hordeum murinum; details: application rate 80 g/ha
Outline: as §1

LOLRI = test: Post-emergence herbicidal action against LOLRI; type: in vivo, Lolium rigidum; details: application rate 80 g/ha, rated visually after about 3 weeks
Outline: as §1

MATIN = test: Post-emergence herbicidal action against MATIN; type: in vivo, Matricaria inodora; details: application rate 80 g/ha, rated visually about 3 weeks after treatment
Description: [table] 2. Post-emergence herbicidal action against harmful plants and crop plant compatibility Seeds of monocotyledonous and dicotyledonous weeds and crop plants are placed in sandy loam in plastic or wood-fibre pots, covered with soil and cultivated in a greenhouse under controlled growth conditions. 2 to 3 weeks after sowing, the test plants are treated at the one-leaf stage. The compounds of the invention, formulated in the form of wettable powders (WP) or as emulsion concentrates (EC), are then sprayed onto the green parts of the plants as aqueous suspension or emulsion with addition of 0.5% additive at a water application rate of 600 l/ha (converted). After the test plants have been kept in the greenhouse under optimum growth conditions for about 3 weeks, the activity of the preparations is rated visually in comparison to untreated controls. For example, 100% activity=the plants have died, 0% activity=like control plants.

VERPE = test: Post-emergence herbicidal action against VERPE; type: in vivo, Veronica persica; details: application rate 80 g/ha
Outline: as §1

ALOMY = test: Post-emergence herbicidal action against ALOMY; type: in vivo, Alopecurus myosuroides; details: application rate 80 g/ha, rated visually after about 3 weeks
Outline: as §1

POLCO = test: Post-emergence herbicidal action against POLCO; type: in vivo, Polygonum convolvulus; details: application rate 80 g/ha, rated visually about 3 weeks after treatment
Outline: as §1

AMARE = test: Post-emergence herbicidal action against AMARE; type: in vivo, Amaranthus retroflexus; details: application rate 80 g/ha, rated visually about 3 weeks after treatment
Outline: as §1

SETVI = test: Post-emergence herbicidal action against SETVI; type: in vivo, Setaria viridis; details: application rate 80 g/ha, rated visually after about 3 weeks
Outline: as §1

VIOTR = test: Post-emergence herbicidal action against VIOTR; type: in vivo, Viola tricolor; details: application rate 80 g/ha, rated visually about 3 weeks after treatment
Outline: as §1

PHBPU = test: Post-emergence herbicidal action against PHBPU; type: in vivo, Pharbitis purpurea; details: application rate 80 g/ha, rated visually about 3 weeks after treatment
Outline: as §1

Compound	Herbicidal action against [%] ECHCG (ECHCG)	Herbicidal action against [%] ABUTH (ABUTH)	Herbicidal action against [%] STEME (STEME)	Herbicidal action against [%] AVEFA (AVEFA)	Herbicidal action against [%] HORMU (HORMU)	Herbicidal action against [%] LOLRI (LOLRI)	Herbicidal action against [%] MATIN (MATIN)	Herbicidal action against [%] VERPE (VERPE)	Herbicidal action against [%] ALOMY (ALOMY)	Herbicidal action against [%] POLCO (POLCO)	Herbicidal action against [%] AMARE (AMARE)	Herbicidal action against [%] SETVI (SETVI)	Herbicidal action against [%] VIOTR (VIOTR)	Herbicidal action against [%] PHBPU (PHBPU)
O=C(OCC(F)(F)F)C1C=CC(NC(=O)C2(C(F)(F)F)CC(c3cc(Cl)cc(Cl)c3)=NO2)C1 (mixture of isomers) [Example I-041]	80%	80%	80%	90%	90%	80%	80%	–	–	–	–	–	–	–
CCOC(=O)C1C=CC(NC(=O)C2(C#N)CC(c3cc(F)cc(F)c3)=NO2)C1 (stereo not drawn) [Example I-104]	80%	–	80%	80%	90%	90%	80%	80%	90%	90%	80%	–	–	–
O=C(OCCCl)C1C=CC(NC(=O)C2(C(F)(F)F)CC(c3cc(Cl)cc(Cl)c3)=NO2)C1 (mixture of isomers) [Example I-040]	90%	80%	90%	90%	90%	90%	80%	80%	90%	–	–	–	–	–
N#Cc1cc(F)cc(C2=NOC(C(=O)N[C@H]3C=C[C@@H](C(=O)OCC(F)(F)F)C3)(C(F)(F)F)C2)c1 (stereo partly drawn) [Example I-096]	80%	90%	90%	100%	100%	100%	–	90%	100%	90%	90%	80%	90%	90%
N#Cc1cccc(C2=NOC(C(=O)NC3C=CC(C(=O)O)C3)(C(F)(F)F)C2)c1 (mixture of isomers) [Example I-085]	90%	90%	80%	100%	100%	100%	–	90%	90%	80%	90%	80%	80%	90%
C=CC1(C(=O)N[C@H]2CC=C(C(=O)O)C2)CC(c2cc(F)cc(F)c2)=NO1 (stereo partly drawn) [III-09]	90%	80%	90%	100%	100%	100%	–	90%	90%	90%	90%	80%	90%	90%
CCOC(=O)C1=CC[C@H](NC(=O)C2(C)CC(c3cc(F)cc(F)c3)=NO2)C1 (stereo partly drawn) [III-07]	90%	80%	90%	90%	80%	90%	–	90%	90%	80%	90%	90%	90%	80%

— patent publication US12319664B2, “Herbicidally active 3-phenylisoxazoline-5-carboxamides of cyclopentenylcarboxylic acid derivatives” (Bayer Aktiengesellschaft, priority 2018, dated 2025)
